Laboratory results from US20240366612A1, “COMPOUNDS AND METHODS FOR MODULATING NUCLEIC ACID SPLICING” (REMIX THERAPEUTICS INC., priority 2021, published 2024).

Tested on: HTT CJ mRNA
Test: Gene panel canonical junction qPCR assay, HTT
Assay type: cell-based
Settings: Homo sapiens, larger gene panel, read-out: HTT IC50 (decrease in CJ mRNA levels)
Experimental: Compounds described herein were used to modulate RNA transcript abundance in cells. The expression of a target mRNA was measured by detecting the formation of an exon-exon junction in the canonical transcript (CJ). A compound mediated exon-inclusion event was detected by observing an increase in formation of a new junction with an alternative exon (AJ). Real-time qPCR assays were used to detect these splicing switches and interrogate the potency of various compounds towards different target genes. A high-throughput real time quantitative PCR (RT-qPCR) assay was developed to measure these two isoforms of the mRNA (CJ and AJ) for exemplary genes, such as HTT, SMN2, and MYB, together with a control housekeeping gene, GAPDH or GUSB or PPIA, used for normalization. Briefly, the A673 or K562 cell line was treated with various compounds described herein (e.g., compounds of Formula (I)). After treatment, the levels of the HTT, MYB, or SMN2 mRNA targets were determined from each sample of cell lysate by cDNA synthesis followed by qPCR.
The A673 cell line was cultured in DMEM with 10% FBS. Cells were diluted with full growth media and plated in a 96-well plate (15,000 cells in 100 ul media per well). The plate was incubated at 37° C. with 5% CO2 for 24 hours to allow cells to adhere. An 11-point 3-fold serial dilution of the compounds was made in DMSO then diluted in media in an intermediate plate. Compounds were transferred from the intermediate plate to the cell plate with the top dose at a final concentration of 10 uM in the well. Final DMSO concentration was kept at or below 0.25%. The cell plate was returned to the incubator at 37° C. with 5% CO2 for an additional 24 hours.
The K562 cell line was cultured in IMDM with 10% FBS. For K562, cells were diluted with full growth media and plated in either a 96-well plate (50,000 cells in 50 uL media per well) or a 384-well plate (8,000-40,000 cells in 45 uL media per well). An 11-point 3-fold serial dilution of the compounds were made in DMSO then diluted in media in an intermediate plate. Compound was transferred from the intermediate plate to the cell plate with the top dose at a final concentration of 10 uM in the well. Final DMSO concentration was kept at or below 0.25%. Final volume was 100 uL for 96-well plate and 50 uL for 384-well plate. The cell plate was then placed in an incubator at 37° C. with 5% CO2 for 24 hours.
The data analysis was performed by first determining the ΔCt vs the housekeeper gene. This ΔCt was then normalized against the DMSO control (ΔΔCt) and converted to RQ (relative quantification) using the 2^(−ΔΔCt) equation. The RQ were then converted to a percentage response by arbitrarily setting an assay window of 3.5 and 4.0 ΔCt for HTT-CJ and MYB-CJ respectively and an assay window of 9 and 3 ΔCt for HTT-AJ and MYB-AJ in 96 well format (50,000 K562 cells/well and 15,000 A673 cells per well) and an assay window of 3 and 4 ΔCt for HTT-CJ and MYB-CJ respectively and an assay window of 5 and 3 ΔCt for HTT-AJ and MYB-AJ respectively in 384 well format (8,000 K562 cells/well example). […] The percentage response was then fitted to the 4 parametric logistic equation to evaluate the concentration dependence of compound treatment. The increase in AJ mRNA is reported as AC50 (compound concentration having […] in AJ increase) while the decrease in CJ mRNA levels is reported as IC50 (compound concentration having 50% response in CJ decrease).
Additional studies were carried out for a larger panel of genes using the protocol provided above. The junction between flanking upstream and downstream exons was used to design canonical junction qPCR assays. At least one of the forward primer, reverse primer or the CY5-labeled 5′ nuclease probe (with 3′ quencher such as ZEN/Iowa Black FQ) was designed to overlap with the exon junction to capture the CJ mRNA transcript. […]

| IC50 | Structure (SMILES) |
| --- | --- |
| 100 to 1000 nM | Cc1cn2cc(-c3cc4ncn(C5=CCNCC5)c(=O)c4s3)cc(F)c2n1 [Compound 276, 6-{8-fluoro-2-methylimidazo[1,2-a]pyridin-6-yl}-3-(1,2,3,6-tetrahydropyridin-4-yl)thieno[3,2-d]pyrimidin-4-one] |
| 100 to 1000 nM | Cc1cn2cc(-c3cc4ccn(C5CCN(C)CC5)c(=O)c4s3)cc(F)c2n1 [Compound 808, 2-(8-fluoro-2-methylimidazo[1,2-a]pyridin-6-yl)-6-(1-methylpiperidin-4-yl)thieno[2,3-c]pyridin-7(6H)-one] |
| 1000 to 10000 nM | Cc1cn2cc(-c3cc(=O)n4nc(N5CCN(C)CC5)sc4n3)cc(F)c2n1 [Compound 159, 7-(8-fluoro-2-methylimidazo[1,2-a]pyridin-6-yl)-2-(4-methylpiperazin-1-yl)-5H-[1,3,4]thiadiazolo[3,2-a]pyrimidin-5-one] |
| > 10000 nM | Cc1cc(-c2cc(=O)n3cc(N4CCN(C)CC4)sc3n2)cc2cn(C)nc12 [Compound 109, 7-(2,7-dimethyl-2H-indazol-5-yl)-2-(4-methylpiperazin-1-yl)-5H-thiazolo[3,2-a]pyrimidin-5-one] |
| < 100 nM | Cc1cc(-c2cc3ncn(C4CCNCC4)c(=O)c3s2)cc2cn(C)nc12 [Compound 236, 6-(2,7-dimethyl-2H-indazol-5-yl)-3-(piperidin-4-yl)thieno[3,2-d]pyrimidin-4(3H)-one] |
| 1000 to 10000 nM | Cc1cn2cc(-c3nn4c(=O)cc(N5CCN(C)CC5)nc4s3)cc(F)c2n1 [Compound 217, 2-(8-fluoro-2-methylimidazo[1,2-a]pyridin-6-yl)-7-(4-methylpiperazin-1-yl)-5H-[1,3,4]thiadiazolo[3,2-a]pyrimidin-5-one] |
| 100 to 1000 nM | Cc1cn2nc(-c3cc4ccn(C5CCNCC5)c(=O)c4s3)cc(C)c2n1 [Compound 806, 2-(2,8-dimethylimidazo[1,2-b]pyridazin-6-yl)-6-(piperidin-4-yl)thieno[2,3-c]pyridin-7(6H)-one] |
| 1000 to 10000 nM | COc1cc(-c2cc3ncn(C4CCNCC4)c(=O)c3s2)cnn1 [Compound 260] |
| 1000 to 10000 nM | Cc1nc(-c2nc3ncn(C4CCNCC4)c(=O)c3s2)cc2cn(C)nc12 [Compound 251, 2-(2,7-dimethyl-2H-pyrazolo[3,4-c]pyridin-5-yl)-6-(piperidin-4-yl)thiazolo[4,5-d]pyrimidin-7(6H)-one] |
| 1000 to 10000 nM | Cc1cn2cc(-n3cnc4nc(N5CCN(C)CC5)sc4c3=O)cc(F)c2n1 [Compound 228, 6-(8-fluoro-2-methylimidazo[1,2-a]pyridin-6-yl)-2-(4-methylpiperazin-1-yl)thiazolo[4,5-d]pyrimidin-7(6H)-one] |
| 100 to 1000 nM | Cc1cc(-c2nc3ncn(C4CCN(C)CC4)c(=O)c3s2)cc2cn(C)nc12 [Compound 234, 2-(2,7-dimethyl-2H-indazol-5-yl)-6-(1-methylpiperidin-4-yl)thiazolo[4,5-d]pyrimidin-7(6H)-one] |
| 100 to 1000 nM | Cc1cc(-c2cc3cnn(C4CCNCC4)c(=O)c3s2)cc2cn(C)nc12 [Compound 802, 2-(2,7-dimethyl-2H-indazol-5-yl)-6-(piperidin-4-yl)thieno[2,3-d]pyridazin-7(6H)-one] |
| 1000 to 10000 nM | Cc1cn2nc(-c3cc4ncn(C5CCN(C)CC5)c(=O)c4s3)cc(C)c2n1 [Compound 239, 6-(2,8-dimethylimidazo[1,2-b]pyridazin-6-yl)-3-(1-methylpiperidin-4-yl)thieno[3,2-d]pyrimidin-4(3H)-one] |
| 100 to 1000 nM | Cc1cn2nc(-c3nc4cnn(C5CCNCC5)c(=O)c4s3)cc(C)c2n1 [Compound 810] |
| 100 to 1000 nM | Cc1cn2cc(-c3cc4ncn(C5CCNC5)c(=O)c4s3)cc(F)c2n1 (stereo not drawn) [Compound 270, 6-{8-fluoro-2-methylimidazo[1,2-a]pyridin-6-yl}-3-(pyrrolidin-3-yl)thieno[3,2-d]pyrimidin-4-one] |
| < 100 nM | Cc1cn2cc(-c3cc4ncn(C5CCNCC5)c(=O)c4s3)cc(F)c2n1 [Compound 235, 6-(8-fluoro-2-methylimidazo[1,2-a]pyridin-6-yl)-3-(piperidin-4-yl)thieno[3,2-d]pyrimidin-4(3H)-one] |
| 100 to 1000 nM | Cc1cc(-c2cc3ncn(C4CCN(C)CC4)c(=O)c3s2)cc2cn(C)nc12 [Compound 237, 6-(2,7-dimethyl-2H-indazol-5-yl)-3-(1-methylpiperidin-4-yl)thieno[3,2-d]pyrimidin-4(3H)-one] |
| 1000 to 10000 nM | Cc1cn2cc(-c3nn4c(=O)cc(N5CCNCC5)nc4s3)cc(F)c2n1 [Compound 214, 2-(8-fluoro-2-methylimidazo[1,2-a]pyridin-6-yl)-7-(piperazin-1-yl)-5H-[1,3,4]thiadiazolo[3,2-a]pyrimidin-5-one] |
| 100 to 1000 nM | Cc1cn2cc(-n3cnc4nc(N5CCNCC5)sc4c3=O)cc(F)c2n1 [Compound 226, 6-(8-fluoro-2-methylimidazo[1,2-a]pyridin-6-yl)-2-(piperazin-1-yl)thiazolo[4,5-d]pyrimidin-7(6H)-one] |
| > 10000 nM | Cc1cn2cc(-c3cn4c(=O)cc(N5CCNCC5)nc4s3)cc(F)c2n1 [Compound 213, 2-(8-fluoro-2-methylimidazo[1,2-a]pyridin-6-yl)-7-(piperazin-1-yl)-5H-thiazolo[3,2-a]pyrimidin-5-one] |
| 1000 to 10000 nM | Cc1cn2nc(-c3cc(=O)n4cc(N5CCNC6(CC6)C5)sc4n3)cc(C)c2n1 [Compound 211, 7-(2,8-dimethylimidazo[1,2-b]pyridazin-6-yl)-2-(4,7-diazaspiro[2.5]octan-7-yl)-5H-thiazolo[3,2-a]pyrimidin-5-one] |
| 1000 to 10000 nM | Cc1cn2cc(-c3nn4c(=O)cc(N5CCNC6(CC6)C5)nc4s3)cc(F)c2n1 [Compound 216, 2-(8-fluoro-2-methylimidazo[1,2-a]pyridin-6-yl)-7-(4,7-diazaspiro[2.5]octan-7-yl)-5H-[1,3,4]thiadiazolo[3,2-a]pyrimidin-5-one] |
| 100 to 1000 nM | Cc1cn2cc(-c3cc4ncn([C@H]5CCN[C@H](C)C5)c(=O)c4s3)cc(F)c2n1 (relative stereo) [Compound 277, 6-{8-fluoro-2-methylimidazo[1,2-a]pyridin-6-yl}-3-[(trans)-2-methylpiperidin-4-yl]thieno[3,2-d]pyrimidin-4-one] |
| 1000 to 10000 nM | Cc1cn2cc(-c3cc(=O)n4nc(N5CCNC6(CC6)C5)sc4n3)cc(F)c2n1 [Compound 209, 7-(8-fluoro-2-methylimidazo[1,2-a]pyridin-6-yl)-2-(4,7-diazaspiro[2.5]octan-7-yl)-5H-[1,3,4]thiadiazolo[3,2-a]pyrimidin-5-one] |
| 1000 to 10000 nM | Cc1cn2cc(-c3cn4c(=O)cc(N5CCNC6(CC6)C5)nc4s3)cc(F)c2n1 [Compound 208, 2-(8-fluoro-2-methylimidazo[1,2-a]pyridin-6-yl)-7-(4,7-diazaspiro[2.5]octan-7-yl)-5H-thiazolo[3,2-a]pyrimidin-5-one] |
| 1000 to 10000 nM | Cc1cn2cc(-c3cc4ncn([C@H]5CCNC[C@@H]5F)c(=O)c4s3)cc(F)c2n1 (relative stereo) [Compound 272, trans-6-{8-fluoro-2-methylimidazo[1,2-a]pyridin-6-yl}-3-[3-fluoropiperidin-4-yl]thieno[3,2-d]pyrimidin-4-one] |
| > 10000 nM | Cc1cn2cc(-c3cc(=O)n4cc(N5CCNC6(CC6)C5)sc4n3)cc(F)c2n1 [Compound 207, 7-(8-fluoro-2-methylimidazo[1,2-a]pyridin-6-yl)-2-(4,7-diazaspiro[2.5]octan-7-yl)-5H-thiazolo[3,2-a]pyrimidin-5-one] |
